Measurements from US20090088380A1, “GHRH ANALOGS AND THERAPEUTIC USES THEREOF” (priority 2007, published 2009).
Non-standard residues stand in square brackets, D forms with d. Residues, ends and D or L forms follow the SMILES beside them.

Tested on: Rat Growth Hormone
Assay: In vivo GH secretion in adult female Sprague-Dawley rats, single SC or IV injection, RIA
Settings: for GH AUC 45 min / GH AUC 300 min / GH AUC 120 min: in ng·min/mL (unit assumed)
Procedure: In order to assess such use of the GHRH analogs, the following experiments were undertaken. More specially, the goal was to assess the pharmacodynamic and pharmacokinetic profiles and acute toxicity of GHRH analog #5 when administered once by subcutaneous or intravenous injection to female Sprague-Dawley rats followed by a 14-day observation period and the pharmacodynamic profile in a male Beagle dog when the GHRH analog was administered at escalating doses to the same dog by subcutaneous injection with at least 2-day washout period. The above GHRH analog is a variation of a synthetic acetate salt of an amidated synthetic 29-amino acid peptide that corresponds to the amino-terminal segment of the naturally-occurring human growth hormone—releasing hormone (GHRH) with four amino acid substitutions in positions 2, 10, 15, and 22.
Human GHRH analog #5 in 0.9% sodium chloride for injection USP was administered once either by intravenous (IV) or subcutaneous (SC) injection to female rats followed by a 14-day observation period, as shown in Table 2. Prior to administration, all dosing formulations were filtered using a 0.22 μm filter to ensure sterility. The actual amount of GHRH analog #5 administered was calculated and adjusted based on the animal's most recent body weight. Dosing started at approximately the same time each day, commencing at 9:00 am ±30 minutes.
For pharmacodynamic investigations, blood samples (approximately 1.3 ml) were collected from 2 animals per group per time point (maximum 3 time points/animal) via a jugular venipuncture at the following time points: […] All blood samples were collected into potassium EDTA tubes and centrifuged under refrigeration (2 to 8° C., 1500 g for 10 minutes).
Rat Growth Hormone Determination • Plasma GH was determined by Linco Diagnostic Services using their own kit. Linco's Rat Growth Hormone radioimmunoassay kit (RIA) (RGH-45HK) is intended for the quantitative determination of Rat Growth Hormone in serum, plasma, and tissue culture media. It is a completely homologous assay since the antibody was raised against recombinant Rat Growth Hormone and both the tracer and the standard are prepared with the same recombinant Rat Growth Hormone. The kit includes standards, antibody, tracer, quality controls, precipitating reagents and buffer necessary to complete a RIA. The assay was conducted under the following conditions: overnight; equilibrium incubation at room temperature; sample volume: 100 μl serum, plasma, or cell culture media. The label used was 125I-Rat Growth Hormone (20,000 CPM/tube).

CC[C@H](C)[C@H](NC(=O)[C@H](C)NC(=O)[C@H](CC(=O)O)NC(=O)[C@@H](C)NC(=O)[C@@H](N)Cc1ccc(O)cc1)C(=O)N[C@@H](Cc1ccccc1)C(=O)N[C@H](C(=O)N[C@@H](CC(N)=O)C(=O)N[C@@H](CO)C(=O)N[C@H](Cc1ccc(O)cc1)C(=O)N[C@@H](CCCNC(=N)N)C(=O)N[C@@H](CCCCN)C(=O)N[C@H](C(=O)N[C@@H](CC(C)C)C(=O)N[C@H](C)C(=O)N[C@@H](CCC(N)=O)C(=O)N[C@@H](CC(C)C)C(=O)N[C@@H](CO)C(=O)N[C@@H](C)C(=O)N[C@@H](CCCNC(=N)N)C(=O)N[C@@H](CCCCN)C(=O)N[C@@H](CCCCN)C(=O)N[C@@H](CC(C)C)C(=O)N[C@@H](CCC(N)=O)C(=O)N[C@@H](CC(=O)O)C(=O)N[C@H](C(=O)N[C@@H](CCSC)C(=O)N[C@@H](CO)C(=O)N[C@@H](CCCNC(=N)N)C(N)=O)[C@@H](C)CC)C(C)C)[C@@H](C)O [GHRH analog #5, [D-Ala^2, D-Tyr^10, D-Ala^15, Lys^22] hGHRH(1-29)-NH2] (H-Y[dA]DAIFTNS[dY]RKVL[dA]QLSARKKLQDIMSR-NH2)
Plasma Rat Growth Hormone (0.001 mg/kg BW IV, 4 min): 26.2 ng/mL | Plasma Rat Growth Hormone (0.001 mg/kg BW IV, 10 min): 25.85 ng/mL | Plasma Rat Growth Hormone (0.001 mg/kg BW IV, 15 min): 34.65 ng/mL | Plasma Rat Growth Hormone (0.001 mg/kg BW IV, 45 min): 21.15 ng/mL | Plasma Rat Growth Hormone (0.001 mg/kg BW IV, 300 min): 67.15 ng/mL | GH AUC 45 min (0.001 mg/kg BW IV): 1197 | GH AUC 300 min (0.001 mg/kg BW IV): 12280 | Plasma Rat Growth Hormone (0.001 mg/kg BW IV, −120 min): 23.85 ng/mL | Plasma Rat Growth Hormone (0.001 mg/kg BW SC, 15 min): 36.7 ng/mL | Plasma Rat Growth Hormone (0.001 mg/kg BW SC, 30 min): 14.2 ng/mL | Plasma Rat Growth Hormone (0.001 mg/kg BW SC, 60 min): 26.85 ng/mL | Plasma Rat Growth Hormone (0.001 mg/kg BW SC, 120 min): 17.8 ng/mL | Plasma Rat Growth Hormone (0.001 mg/kg BW SC, 300 min): 21.85 ng/mL | GH AUC 120 min (0.001 mg/kg BW SC): 2914 | GH AUC 300 min (0.001 mg/kg BW SC): 6482 | Plasma Rat Growth Hormone (0.001 mg/kg BW SC, −120 min): 20.15 ng/mL | Plasma Rat Growth Hormone (0.01 mg/kg BW SC, 15 min): 190.4 ng/mL | Plasma Rat Growth Hormone (0.01 mg/kg BW SC, 30 min): 31.9 ng/mL | Plasma Rat Growth Hormone (0.01 mg/kg BW SC, 60 min): 8.5 ng/mL | Plasma Rat Growth Hormone (0.01 mg/kg BW SC, 120 min): 7.6 ng/mL | Plasma Rat Growth Hormone (0.01 mg/kg BW SC, 300 min): 11.95 ng/mL | GH AUC 120 min (0.01 mg/kg BW SC): 5153 | GH AUC 300 min (0.01 mg/kg BW SC): 6913 | Plasma Rat Growth Hormone (0.01 mg/kg BW SC, −120 min): 20.4 ng/mL | Plasma Rat Growth Hormone (0.03 mg/kg BW IV, 4 min): 68.45 ng/mL | Plasma Rat Growth Hormone (0.03 mg/kg BW IV, 10 min): 254.65 ng/mL | Plasma Rat Growth Hormone (0.03 mg/kg BW IV, 15 min): 75.1 ng/mL | Plasma Rat Growth Hormone (0.03 mg/kg BW IV, 45 min): 33.4 ng/mL | Plasma Rat Growth Hormone (0.03 mg/kg BW IV, 300 min): 38.75 ng/mL | GH AUC 45 min (0.03 mg/kg BW IV): 3407 | GH AUC 300 min (0.03 mg/kg BW IV): 12060 | Plasma Rat Growth Hormone (0.03 mg/kg BW IV, −120 min): 43.15 ng/mL | Plasma Rat Growth Hormone (0.03 mg/kg BW SC, 15 min): 240.9 ng/mL | Plasma Rat Growth Hormone (0.03 mg/kg BW SC, 30 min): 39.05 ng/mL | Plasma Rat Growth Hormone (0.03 mg/kg BW SC, 60 min): 9.5 ng/mL | Plasma Rat Growth Hormone (0.03 mg/kg BW SC, 120 min): 4.6 ng/mL | Plasma Rat Growth Hormone (0.03 mg/kg BW SC, 300 min): 11.25 ng/mL | GH AUC 120 min (0.03 mg/kg BW SC): 6192 | GH AUC 300 min (0.03 mg/kg BW SC): 7618 | Plasma Rat Growth Hormone (0.03 mg/kg BW SC, −120 min): 36.1 ng/mL | Plasma Rat Growth Hormone (0.1 mg/kg BW SC, 15 min): 252.4 ng/mL | Plasma Rat Growth Hormone (0.1 mg/kg BW SC, 30 min): 43.8 ng/mL | Plasma Rat Growth Hormone (0.1 mg/kg BW SC, 60 min): 7.65 ng/mL | Plasma Rat Growth Hormone (0.1 mg/kg BW SC, 120 min): 4.45 ng/mL | Plasma Rat Growth Hormone (0.1 mg/kg BW SC, 300 min): 18.7 ng/mL | GH AUC 120 min (0.1 mg/kg BW SC): 6423 | GH AUC 300 min (0.1 mg/kg BW SC): 8507 | Plasma Rat Growth Hormone (0.1 mg/kg BW SC, −120 min): 20.4 ng/mL | Plasma Rat Growth Hormone (0.3 mg/kg BW SC, 15 min): 247.9 ng/mL | Plasma Rat Growth Hormone (0.3 mg/kg BW SC, 30 min): 133.5 ng/mL | Plasma Rat Growth Hormone (0.3 mg/kg BW SC, 60 min): 16.75 ng/mL | Plasma Rat Growth Hormone (0.3 mg/kg BW SC, 120 min): 4.00 ng/mL | Plasma Rat Growth Hormone (0.3 mg/kg BW SC, 300 min): 21.8 ng/mL
